From ChEMBL document CHEMBL4673230, “Total Synthesis of Natural Lembehyne C and Investigation of Its Cytotoxic Properties” (J Nat Prod, 2020)
Calls of active or inactive are those of the source. No cut-off for these calls is given here.

Columns and labels:
Jurkat [1] = assay: Induction of DNA damage in human Jurkat cells assessed as increase in H2Ax phosphorylation at 0.2 uM after 2 hrs by Alexa Fluor555 staining based flow cytometric analysis; assay type: functional, cell-based
Jurkat [2] = assay: Induction of ROS generation in human Jurkat cells assessed as apoptotic cells at 200 nM after 4 hrs by MitoSox Red/annexin V-CF488A staining based flow cytometric analysis (reference value: 3.18%); assay type: functional
Jurkat [3] = assay: Induction of ROS generation in human Jurkat cells assessed as apoptotic cells with clear mitochondrial damages at 200 nM after 4 hrs by MitoSox Red/annexin V-CF488A staining based flow cytometric analysis (reference value: 0.39%); assay type: functional
Jurkat [4] = assay: Induction of ROS generation in human Jurkat cells assessed as living undamaged cells at 200 nM after 2 hrs by MitoSox Red/annexin V-CF488A staining based flow cytometric analysis (reference value: 95.44%); assay type: functional
Jurkat [5] = assay: Induction of ROS generation in human Jurkat cells assessed as mitochondria damaged cells at 200 nM after 4 hrs by MitoSox Red/annexin V-CF488A staining based flow cytometric analysis (reference value: 0%); assay type: functional
Jurkat [6] = assay: Induction of mitochondrial membrane potential loss in human Jurkat cells at 200 nM after 4 hrs by MitoSense Red/7-AAD. flow cytometric analysis; assay type: functional, cell-based
Jurkat [7] = assay: Induction of mitochondrial membrane potential loss in human Jurkat cells assessed as alife cells at 200 nM after 4 hrs by MitoSense Red/7-AAD. flow cytometric analysis (reference value: 98.47%); assay type: functional
Jurkat [8] = assay: Induction of mitochondrial membrane potential loss in human Jurkat cells assessed as stressed cells at 200 nM after 4 hrs by MitoSense Red/7-AAD. flow cytometric analysis (reference value: 1.12%); assay type: functional
Jurkat [9] = assay: Induction of mitochondrial membrane potential loss in human Jurkat cells assessed as death cells at 200 nM after 4 hrs by MitoSense Red/7-AAD. flow cytometric analysis (reference value: 0.22%); assay type: functional
Jurkat [10] = assay: Induction of apoptosis in human Jurkat cells assessed as early apoptotic cells at 200 nM after 24 hrs by Annexin V/7-AAD staining.based flow cytometric analysis relative to control; assay type: functional
Jurkat [11] = assay: Induction of apoptosis in human Jurkat cells assessed as late apoptotic cells after 24 hrs by Annexin V/7-AAD staining.based flow cytometric analysis; assay type: functional, cell-based; conditions: dose 50-400 nM
Jurkat [12] = assay: Induction of cell cycle arrest in human Jurkat cells assessed as accumulation at sub-G1 phase at 2 uM after 24 hrs by Guava Cell Cycle reagent based flow cytometric analysis relative to control; assay type: functional
Jurkat [13] = assay: Induction of DNA damage in human Jurkat cells assessed as increase in H2Ax phosphorylation at 2 uM after 2 hrs by Alexa Fluor555 staining based flow cytometric analysis; assay type: functional, cell-based

For `COc1cc([C@@H]2c3cc4c(cc3[C@@H](O[C@@H]3O[C@@H]5CO[C@@H](C)O[C@H]5[C@H](O)[C@H]3O)[C@H]3COC(=O)[C@H]23)OCO4)cc(OC)c1O` [ETOPOSIDE], the Activity (Jurkat [1]) was “Active”, the Activity (Jurkat [2]) was 86.42% and the Activity (Jurkat [3]) was 13.1%. For the same molecule, the Activity (Jurkat [4]) was 0.48% and the Activity (Jurkat [5]) was 0%.

`CN[C@@H]1C[C@H]2O[C@@](C)([C@@H]1OC)n1c3ccccc3c3c4c(c5c6ccccc6n2c5c31)C(=O)NC4` [STAUROSPORINE] was tested, and the Activity (Jurkat [6]) was “Active”, the Activity (Jurkat [7]) was 53.44% and the Activity (Jurkat [8]) was 30.37%. It also gave an Activity (Jurkat [9]) of 15.87%.

For `C#C[C@H](O)CCCCCCCCCCC/C=C\CC/C=C\CCCCCCCCCCCCCCCC`, the Activity (Jurkat [10]) was 78.6%, the Activity (Jurkat [11]) was “Dose-dependent effect” and the Activity (Jurkat [12]) was 15.1%. For the same molecule, the Activity (Jurkat [13]) was “inactive”.

In the case of `CC[C@@]1(O)C(=O)OCc2c1cc1n(c2=O)Cc2cc3ccccc3nc2-1` [CAMPTOTHECIN], the Activity (Jurkat [2]) was 68.24%, the Activity (Jurkat [3]) was 1.92% and the Activity (Jurkat [4]) was 29.83%. It also gave an Activity (Jurkat [5]) of 0%.
